# Experimental data: patent US12436145B2, “Cryptic antibiotics and methods for detecting bioactive cryptic metabolites” (THE TRUSTEES OF PRINCETON UNIVERSITY, priority 2019, dated 2025)
# Where two headings read alike, the source gives them in different places.
# Assays:
# S. agalactiae MMX 6189 = assay: Minimal inhibitory concentration (CLSI methods); type: cell-based
# Method: (§1) Antibacterial assays with taylorflavin B (8) were carried out by Micromyx, LLC in accordance with methods from the Clinical and Laboratory Standards Institute. Minimal inhibitory concentrations were determined with the following strains: E. coli ATCC 25922, A. baumannii ATCC 19606, V. cholerae BAA-2163, N. gonorrhoeae ATCC 49226, P. aeruginosa ATCC 27853, K. pneumoniae MMX 214. S. aureus ATCC 29213, S. aureus MMX 2011, S. pneumoniae ATCC 49619, S. pyogenes MMX 6253, S. agalactiae MMX 6189, E. faecalis ATCC 29212, E. faecalis MMX 486, B. subtilis ATCC 6633, C. difficile ATCC 700057, B. fragilis ATCC 25285. Assays with taylorflavin A (7) were carried in-house according to the same protocols.
# S. pneumoniae ATCC 49619 = assay: Minimal inhibitory concentration (CLSI methods); type: cell-based; conditions: S. pneumoniae PSPP
# Method: as §1
# E. faecalis MMX 486 = assay: Minimal inhibitory concentration (CLSI methods); type: cell-based; conditions: E. faecalis VRE
# Method: as §1
# C. difficile ATCC 700057 = assay: Minimal inhibitory concentration (CLSI methods); type: cell-based
# Method: as §1
# E. faecalis ATCC 29212 = assay: Minimal inhibitory concentration (CLSI methods); type: cell-based; conditions: E. faecalis VSE
# Method: as §1
# S. aureus MMX 2011 = assay: Minimal inhibitory concentration (CLSI methods); type: cell-based; conditions: S. aureus MRSA
# Method: as §1
# B. subtilis ATCC 6633 = assay: Minimal inhibitory concentration (CLSI methods); type: cell-based
# Method: as §1
# S. pyogenes MMX 6253 = assay: Minimal inhibitory concentration (CLSI methods); type: cell-based
# Method: as §1
# [1] = tested on: N. gonorrhoeae ATCC 49226; assay: Minimal inhibitory concentration (CLSI methods); type: cell-based
# Method: as §1
# K. pneumoniae MMX 214 = assay: Minimal inhibitory concentration (CLSI methods); type: cell-based
# Method: as §1
# E. coli ATCC 25922 = assay: Minimal inhibitory concentration (CLSI methods); type: cell-based
# Method: as §1
# B. fragilis ATCC 25285 = assay: Minimal inhibitory concentration (CLSI methods); type: cell-based
# Method: as §1
# S. aureus ATCC 29213 = assay: Minimal inhibitory concentration (CLSI methods); type: cell-based
# Method: as §1
# P. aeruginosa ATCC 27853 = assay: Minimal inhibitory concentration (CLSI methods); type: cell-based
# Method: as §1
# [2] = tested on: collection of Gram-positive bacteria; assay: Antibacterial assays, Gram-positive panel; type: cell-based
# Method: as §1
# V. cholerae BAA-2163 = assay: Minimal inhibitory concentration (CLSI methods); type: cell-based, Vibrio cholerae
# Method: as §1
# E. coli = assay: In-house bioactivity assays of induced peaks and purified taylorflavins; type: cell-based
# A. baumannii ATCC 19606 = assay: Minimal inhibitory concentration (CLSI methods); type: cell-based, Acinetobacter baumannii
# Method: as §1
# S. hiroshimensis A18 = assay: Validation of elicitor: disc diffusion assay of culture extracts on E. coli ZSR638; type: cell-based, Streptomyces hiroshimensis; conditions: S. hiroshimensis culture induced by 33 μM atenolol; uninduced control none
# Method: Seed cultures of S. hiroshimensis A18 were prepared as described for the HiTES screen above. […] A control flask was prepared containing the same volume of DMSO, rather than atenolol. The culture was incubated at 30° C./200 rpm. […] The organic phases were combined, divided in two, and dried in vacuo.
# For the disc diffusion assays, the dried control and atenolol-treated culture extracts were dissolved in 100 μL of DMSO each. Filter paper discs were infused with 30 μL of each sample, allowed to dry, and then placed on a soft LB agar (1% agarose) plate inoculated with E. coli ZSR638 at a concentration of 2×10^6 cells/mL. The agar plate was incubated at 37° C. for 10 h and then inspected visually.
# several Vibrio strains = assay: Cebulantin bioactivity screen (IC50); type: cell-based; conditions: range over several Vibrio strains
# [3] = tested on: Gram-positive bacteria tested; assay: Cebulantin bioactivity screen; type: cell-based
# β-galactosidase = conditions: cited from earlier work
compound,measurement,setting,value
"Cn1nc2c(nc1=O)c(=O)n(C)c(=O)n2C [Taylorflavin B, 2-methylfervenulone]",minimal inhibitory concentration (MIC),S. agalactiae MMX 6189,32 µg/mL
same,minimal inhibitory concentration (MIC),S. pneumoniae ATCC 49619,32 µg/mL
same,minimal inhibitory concentration (MIC),E. faecalis MMX 486,64 µg/mL
same,minimal inhibitory concentration (MIC),C. difficile ATCC 700057,>64 µg/mL
same,minimal inhibitory concentration (MIC),E. faecalis ATCC 29212,>64 µg/mL
same,minimal inhibitory concentration (MIC),S. aureus MMX 2011,64 µg/mL
same,minimal inhibitory concentration (MIC),B. subtilis ATCC 6633,64 µg/mL
same,minimal inhibitory concentration (MIC),S. pyogenes MMX 6253,32 µg/mL
same,minimal inhibitory concentration (MIC),[1],4 µg/mL
same,minimal inhibitory concentration (MIC),K. pneumoniae MMX 214,>64 µg/mL
same,minimal inhibitory concentration (MIC),E. coli ATCC 25922,16 µg/mL
same,minimal inhibitory concentration (MIC),B. fragilis ATCC 25285,>64 µg/mL
same,minimal inhibitory concentration (MIC),S. aureus ATCC 29213,64 µg/mL
same,minimal inhibitory concentration (MIC),P. aeruginosa ATCC 27853,>64 µg/mL
same,growth inhibition of Gram-positive bacteria,[2],did not inhibit the growth
same,minimal inhibitory concentration (MIC),V. cholerae BAA-2163,16 µg/mL
same,antibiotic activity / inhibition of E. coli growth,E. coli,more potent inhibitor
same,antibiotic activity / inhibition of E. coli growth,E. coli; listed as 8,antibiotic activity
same,minimal inhibitory concentration (MIC),A. baumannii ATCC 19606,16 µg/mL
CC(C)NCC(O)COc1ccc(CC(N)=O)cc1 (centres unmarked) [atenolol],zone of inhibition on E. coli agar plates,S. hiroshimensis A18,clear zone of inhibition
C/C=C1\NC(=O)CNC(=O)[C@H](Cc2ccccc2)NC(=O)[C@H](NC(=O)[C@@H](NC(=O)[C@@H]2CCCN2C(=O)CN)[C@@H](C)CC)[C@H](C)SC[C@@H]2NC(=O)[C@H](NC1=O)[C@H](C)SC[C@@H](C(=O)N1CCC[C@H]1C(=O)N[C@@H]1CSC[C@@H](C(=O)O)NC(=O)[C@H](CO)NC(=O)[C@H](C(C)C)NC(=O)/C(=C/C)NC(=O)[C@H](CC(N)=O)NC(=O)[C@H](C)NC1=O)NC(=O)[C@@H]1C[C@@H](O)CN1C(=O)/C(=C/C)NC(=O)CNC(=O)[C@H](Cc1c[nH]c3ccccc13)NC2=O [cebulantin],IC50,several Vibrio strains,8.8 to 29.1 µM
same,IC50,E. coli (ΔlptD),9.7 µM
same,IC50,V. anguillarum,29.1 ± 8.2 µM
same,IC50,P. aeruginose,47 ± 11.4 µM
same,IC50,V. parahaemolyticus,8.8 ± 2.1 µM
same,IC50,V. cholerae,14.1 ± 2.4 µM
same,IC50,V. alginolyticus,24.5 ± 3.2 µM
same,IC50,V. ordahi,27 ± 5.4 µM
same,IC50,S. aureus,> 100 µM
same,growth-inhibitory activity,[3],no growth-inhibitory activity
same,IC50,B. subtilis,> 100 µM
OCc1cc2c([nH]c3ccccc32)c(C(O)CO)n1 (centres unmarked) [pyridindolol],inhibitory activity against β-galactosidase,β-galactosidase,inhibitory activity
